From ChEMBL document CHEMBL5608181, “Discovery of indazole inhibitors for heat shock protein 90 as anti-cancer agents” (Eur J Med Chem, 2024)
The source made the active and inactive calls. The calls are words filed in the database; no cut-off is given here.

How the values were obtained:
Homo sapiens = organism: Homo sapiens; test: Inhibition of N-terminal HSP90 (unknown origin) at 10 uM by AlphaLISA assay
BT-474 = test: Antiproliferative activity against human BT-474 cells assessed as inhibition of cell viability at 10 uM measured after 72 hrs by CellTiter 96 Aqueous One Solution Cell Proliferation Assay relative to control; assay type: functional

Row | inhibition (Homo sapiens) | Compound | inhibition at 10 µM (BT-474)
1 | inactive | CO[C@@H]1[C@@H](OC(N)=O)[C@@H](O)[C@H](Oc2ccc3c(O)c(NC(=O)c4ccc(O)c(CC=C(C)C)c4)c(=O)oc3c2C)OC1(C)C | –
2 | – | COCCCn1nc(NC(=O)c2ccc3c(c2OC)C=CC(C)(C)O3)c2ccccc21 | > 50%
3 | Active | CC(C)c1cc(C(=O)N2Cc3ccc(CN4CCN(C)CC4)cc3C2)c(O)cc1O | –
